Patent US20240041853A1, “DOSAGE REGIMEN FOR A NR2B-NMDA RECEPTOR NAM FOR THE TREATMENT OF DEPRESSION” (Novartis AG, priority 2020, published 2024)

Experiments:
[1] = Garner et al 2015; Pagnozzi et al 1995; Preskorn et al 2008; cited from earlier work
[2] = system: patients with treatment resistant depression (TRD); assay: Phase IIa proof of concept study, efficacy (MADRS, CGI-I); type: in vivo, human
Method: (§1) A multi-center, randomized, subject and investigator blinded, placebo controlled, active comparator, parallel group, proof of concept study to evaluate the efficacy, safety, tolerability, and pharmacokinetics of Compound (I) in patients with treatment resistant depression (TRD). The study included two different active Compound (I) doses of 0.16 mg/kg and 0.32 mg/kg given in two different regiments—weekly and bi-weekly (every other week). The study also included a ketamine arm.
(§2) Adults with major depressive disorder and prior failure of ≥2 standard antidepressants of adequate dose and >8 weeks duration in a major depressive episode (per DSM-5 criteria) and Montgomery-Åsberg Depression Rating Scale (MADRS) score ≥24 were eligible. Patients were randomized (3:3:3:3:6:4) to one of six treatment arms for 36 days: low dose (0.16 mg/kg) Compound (I) weekly (N=11) or every other week (q2w [N=10]); high dose (0.32 mg/kg) Compound (I) weekly (N=10) or q2w (N=9); placebo (N=20); or ketamine 0.5 mg/kg weekly (N=10). Change in MADRS total score at 24 hours (h) from baseline (primary endpoint), was analyzed using analysis of covariance. Secondary endpoints included change in MADRS score at 48 hours and 6 weeks and clinical global impression-improvement (CGI-I) score at 24 hours, 48 hours and 6 weeks. Safety and tolerability were also assessed.

[3] = system: patients with treatment resistant depression (TRD); assay: Phase IIa proof of concept study, safety and tolerability (adverse events); type: in vivo, human
Method: as §1, §2

[4] = system: patients with unipolar and bipolar depression; details: cited from earlier work

C[C@@H]([C@@H](O)c1ccc(O)cc1)N1CCC(O)(c2ccccc2)CC1 [CP-101,606]
frequency of dissociative adverse events [1]: low frequencies of dissociative adverse events

Oc1ccc([C@@H](O)CN2C[C@H]3C[C@H](Oc4ccccc4F)C[C@H]3C2)nc1 [Compound (I)]
time in which efficacy occurred ([2]; 0.16 mg/kg or 0.32 mg/kg, weekly or every other week): ≤ 24 h | ΔAM [80% CI] in MADRS score vs placebo ([2]; Week 6, 0.16 mg/kg q2w, 80% CI [−11.8, −1.15], p=0.059, greatest benefit): −6.46 | maintenance of efficacy ([2]; after repeated dosing): maintained at 6 weeks | CGI-I scores vs placebo ([2]; at 24 hours, 48 hours and 6 weeks): suggested benefits | Adjusted mean difference (ΔAM) in MADRS vs placebo ([2]; at 24 hours, pooled 0.16 mg/kg, p=0.001): −8.25 | mean decrease in MADRS score ([2]; at 24 hours, pooled Compound (I) 0.16 mg/kg group (weekly and q2w)): 15.51 points | mean decrease in MADRS score ([2]; at 24 hours, pooled Compound (I) 0.32 mg/kg group (weekly and q2w)): 12.98 points | Adjusted mean difference (ΔAM) in MADRS vs placebo ([2]; at 24 hours, second pooled Compound (I) group (dose figure missing in print), p=0.019): −5.71 | Adjusted mean difference (ΔAM) in MADRS vs placebo ([2]; at 48 h, pooled 0.16 mg/kg, p=0.013): −7.06 | Adjusted mean difference (ΔAM) in MADRS vs placebo ([2]; at 48 h, second pooled Compound (I) group (dose figure missing in print), p=0.013): −7.37 | efficacy of 0.16 mg/kg compared with 0.32 mg/kg ([2]; each administered once every week or once every other week): as effective as a dose of 0.32 mg/kg | improvement in MADRS score vs placebo ([2]; patients with TRD, overall conclusion): significant improvement | Time to both onset and resolution of dissociative AEs and sedation ([3]; in vivo): longer for Compound (I) than for ketamine | safety signals ([3]; in vivo): No new safety signals were identified

Cc1ccc(COC(=O)N2CC[C@H](CNc3ncccn3)[C@H](F)C2)cc1 [MK-0657]
frequency of dissociative adverse events [1]: low frequencies of dissociative adverse events

CNC1(c2ccccc2Cl)CCCCC1=O (stereo not drawn) [ketamine]
Adjusted mean difference (ΔAM) in MADRS vs placebo ([2]; at 24 hours, ketamine 0.5 mg/kg weekly, p=0.046): −5.67 | mean decrease in MADRS score ([2]; at 24 hours, ketamine group, 0.5 mg/kg weekly): 12.94 points | Adjusted mean difference (ΔAM) in MADRS vs placebo ([2]; at 48 h, ketamine 0.5 mg/kg weekly, p=0.019): −11.02 | Adverse events (AEs), patients ([3]; ketamine 0.5 mg/kg weekly): 50% | Dissociative AEs, patients ([3]; ketamine 0.5 mg/kg weekly): 50% | incidence of sedation ([3]; ketamine 0.5 mg/kg weekly): 10% | effect on suicidality ([4]; Katalinic et al 2013, Murrough et al 2015): reduce suicidality | antidepressant effects ([4]; single dose 0.5 mg/kg infused over 40 minutes, 7 patients, Berman et al 2000): rapid antidepressant effects
